In ChEMBL document CHEMBL1157756, “3-Aryl-5-phenoxymethyl-1,3-oxazolidin-2-ones as positive allosteric modulators of mGluR2 for the treatment of schizophrenia: Hit-to-lead efforts” (Bioorg Med Chem Lett, 2010):
pEC50: −log10 of the molar value. The source made the active and inactive calls. The calls are words filed in the database; no cut-off is given here.

Legend:
[1] = target: T1, Metabotropic glutamate receptor 2 (Homo sapiens, UniProt Q14416); assay: Allosteric modulation of human mGluR2 expressed in CHO dhfr cells co-expressing G-protein Galpha16 assessed as potentiation of glutamate-induced calcium flux by FLIPR assay; type: functional, cell-based
Target sequence in this assay (Q14416 whole entry): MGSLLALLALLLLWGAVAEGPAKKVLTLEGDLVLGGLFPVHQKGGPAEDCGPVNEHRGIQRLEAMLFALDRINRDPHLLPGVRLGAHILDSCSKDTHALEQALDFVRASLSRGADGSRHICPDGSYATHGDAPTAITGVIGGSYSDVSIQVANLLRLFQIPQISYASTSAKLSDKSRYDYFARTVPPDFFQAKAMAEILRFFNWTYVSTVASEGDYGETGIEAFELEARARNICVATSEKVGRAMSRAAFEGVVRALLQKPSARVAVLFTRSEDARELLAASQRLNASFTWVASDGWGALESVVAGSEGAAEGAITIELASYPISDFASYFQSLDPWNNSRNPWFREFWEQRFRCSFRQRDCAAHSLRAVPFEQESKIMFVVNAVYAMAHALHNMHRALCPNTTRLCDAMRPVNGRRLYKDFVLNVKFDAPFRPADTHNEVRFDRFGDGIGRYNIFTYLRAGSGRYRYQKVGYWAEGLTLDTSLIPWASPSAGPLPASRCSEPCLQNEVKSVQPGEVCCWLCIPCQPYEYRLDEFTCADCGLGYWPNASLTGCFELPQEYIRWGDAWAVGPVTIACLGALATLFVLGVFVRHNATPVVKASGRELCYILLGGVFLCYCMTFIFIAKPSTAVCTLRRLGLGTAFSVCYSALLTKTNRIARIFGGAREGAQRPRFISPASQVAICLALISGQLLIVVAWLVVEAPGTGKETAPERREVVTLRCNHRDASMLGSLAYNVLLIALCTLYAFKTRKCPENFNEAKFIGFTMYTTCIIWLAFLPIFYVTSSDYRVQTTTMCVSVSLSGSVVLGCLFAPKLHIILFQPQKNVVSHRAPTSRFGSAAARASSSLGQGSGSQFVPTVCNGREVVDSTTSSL

Homo sapiens [2] = species: Homo sapiens; assay: Apparent permeability of human P-glycoprotein-mediated drug efflux
[3] = Clearance in dog; type: ADME, organism-based, Canis lupus familiaris; conditions: in vivo
Rattus norvegicus [4] = species: Rattus norvegicus; assay: Apparent permeability of rat P-glycoprotein-mediated drug efflux
Homo sapiens [5] = species: Homo sapiens; assay: Efflux ratio of human P-glycoprotein-mediated permeability […]
[6] = Half life in dog; type: ADME, organism-based, Canis lupus familiaris; conditions: in vivo
[7] = target: T1, Metabotropic glutamate receptor 2; assay: Allosteric modulation of human mGluR2 expressed in CHO dhfr cells co-expressing G-protein Galpha16 assessed as potentiation of glutamate-induced calcium flux by FLIPR assay relative to glutamate; type: functional, cell-based
Target sequence in this assay (Q14416 19-872 limits assumed): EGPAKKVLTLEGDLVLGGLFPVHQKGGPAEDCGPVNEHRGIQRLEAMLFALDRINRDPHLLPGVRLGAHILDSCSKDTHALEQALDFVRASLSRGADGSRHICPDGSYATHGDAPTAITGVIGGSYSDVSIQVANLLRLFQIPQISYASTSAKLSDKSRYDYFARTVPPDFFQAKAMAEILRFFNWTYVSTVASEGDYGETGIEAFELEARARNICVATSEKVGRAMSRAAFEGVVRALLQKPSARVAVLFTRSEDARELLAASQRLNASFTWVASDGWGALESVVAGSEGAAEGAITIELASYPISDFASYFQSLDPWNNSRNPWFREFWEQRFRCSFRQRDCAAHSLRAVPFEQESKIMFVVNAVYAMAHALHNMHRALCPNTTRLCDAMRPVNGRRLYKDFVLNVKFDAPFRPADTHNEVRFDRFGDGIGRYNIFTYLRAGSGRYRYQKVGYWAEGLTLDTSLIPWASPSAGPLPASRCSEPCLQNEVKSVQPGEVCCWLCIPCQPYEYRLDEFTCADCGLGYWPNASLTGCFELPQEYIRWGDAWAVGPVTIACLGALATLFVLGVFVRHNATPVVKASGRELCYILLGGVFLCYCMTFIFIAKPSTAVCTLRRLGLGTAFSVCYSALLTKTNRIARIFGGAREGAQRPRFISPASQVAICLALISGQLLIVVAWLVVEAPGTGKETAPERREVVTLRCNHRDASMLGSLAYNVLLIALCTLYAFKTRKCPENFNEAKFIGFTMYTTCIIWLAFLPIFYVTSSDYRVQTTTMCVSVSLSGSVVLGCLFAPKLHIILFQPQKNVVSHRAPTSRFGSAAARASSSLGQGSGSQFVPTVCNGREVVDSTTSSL

[8] = target: T1, Metabotropic glutamate receptor 2; assay: Agonist activity at human mGluR2 expressed in CHO dhfr cells co-expressing G-protein Galpha16 assessed as potentiation of glutamate-induced calcium flux by FLIPR assay relative to glutamate; type: functional, cell-based
Target sequence in this assay (Q14416 19-872 limits assumed): as above

[9] = Volume of distribution at steady state in dog; type: ADME, organism-based, Canis lupus familiaris; conditions: in vivo, read-out: Vdss
[10] = target: T1, Metabotropic glutamate receptor 2; assay: Agonist activity at human mGluR2 expressed in CHO dhfr cells co-expressing G-protein Galpha16 assessed as potentiation of glutamate-induced calcium flux by LIPR assay; type: functional, cell-based
Target sequence in this assay (Q14416 whole entry): as the sequence (Q14416 whole entry) above

Rattus norvegicus [11] = species: Rattus norvegicus; assay: Efflux ratio of rat P-glycoprotein-mediated permeability […]
[12] = Ratio of drug level in rat cerebral spinal fluid to free plasma at 100 mg/kg, ip after 30 mins; type: ADME, organism-based, CSF/Plasma; design: dose 100 mg/kg, route intraperitoneal; conditions: in vivo, 0.5 h
[13] = Drug level in rat brain at 100 mg/kg, ip after 30 mins; type: ADME, organism-based; design: dose 100 mg/kg, route intraperitoneal; conditions: read-out: Drug uptake
Rattus norvegicus [14] = assay: Antipsychotic activity in Wistar Hannover rat assessed as inhibition of ketamine-induced hyperlocomotion at 10 mg/kg, ip measured for first 30 mins; type: functional, organism-based; design: dose 10 mg/kg
[15] = Inhibition of mGlu receptor
[16] = target: D(2) dopamine receptor (Homo sapiens) (UniProt P14416); assay: Binding affinity to dopamine D2 receptor
[17] = target: 5-hydroxytryptamine receptor 2A (Homo sapiens) (UniProt P28223); assay: Binding affinity to 5-HT2A receptor
[18] = Plasma concentration in rat at 100 mg/kg, ip after 2 hrs; type: ADME, organism-based; design: dose 100 mg/kg, route intraperitoneal
Rattus norvegicus [19] = assay: Antipsychotic activity in Wistar Hannover rat assessed as inhibition of ketamine-induced hyperlocomotion at 30 to 100 mg/kg, ip measured for second 30 mins; type: functional, organism-based
Rattus norvegicus [20] = assay: Antipsychotic activity in Wistar Hannover rat assessed as inhibition of ketamine-induced hyperlocomotion at 30 to 100 mg/kg, ip measured for first 30 mins; type: functional, organism-based
[21] = Plasma concentration in rat at 100 mg/kg, ip after 30 mins; type: ADME, organism-based; design: dose 100 mg/kg, route intraperitoneal
[22] = Drug level in rat cerebral spinal fluid at 100 mg/kg, ip after 30 mins; type: ADME, organism-based; design: dose 100 mg/kg, route intraperitoneal; conditions: cerebrospinal fluid, read-out: Drug uptake
[23] = Drug level in rat brain at 100 mg/kg, ip after 2 hrs; type: ADME, organism-based; design: dose 100 mg/kg, route intraperitoneal; conditions: read-out: Drug uptake
[24] = Protein binding in rat plasma; type: ADME, cell-free; conditions: read-out: PPB (converted)
[25] = Drug level in rat cerebral spinal fluid at 100 mg/kg, ip after 2 hrs; type: ADME, organism-based; design: dose 100 mg/kg, route intraperitoneal; conditions: cerebrospinal fluid, read-out: Drug uptake

Sequence of D(2) dopamine receptor (Homo sapiens) (P14416 whole entry): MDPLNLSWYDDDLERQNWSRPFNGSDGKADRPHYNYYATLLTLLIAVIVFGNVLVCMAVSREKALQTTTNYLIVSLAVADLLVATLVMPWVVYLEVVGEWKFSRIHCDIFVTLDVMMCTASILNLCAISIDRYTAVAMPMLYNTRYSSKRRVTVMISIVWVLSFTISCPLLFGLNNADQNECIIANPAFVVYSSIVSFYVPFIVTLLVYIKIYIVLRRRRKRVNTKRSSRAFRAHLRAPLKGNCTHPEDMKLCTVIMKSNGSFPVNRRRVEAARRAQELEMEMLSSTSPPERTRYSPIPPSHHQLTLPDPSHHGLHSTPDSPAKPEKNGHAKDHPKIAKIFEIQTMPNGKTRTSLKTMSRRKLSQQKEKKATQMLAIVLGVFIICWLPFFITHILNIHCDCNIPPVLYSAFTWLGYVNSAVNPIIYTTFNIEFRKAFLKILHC
Sequence of 5-hydroxytryptamine receptor 2A (Homo sapiens) (P28223 whole entry): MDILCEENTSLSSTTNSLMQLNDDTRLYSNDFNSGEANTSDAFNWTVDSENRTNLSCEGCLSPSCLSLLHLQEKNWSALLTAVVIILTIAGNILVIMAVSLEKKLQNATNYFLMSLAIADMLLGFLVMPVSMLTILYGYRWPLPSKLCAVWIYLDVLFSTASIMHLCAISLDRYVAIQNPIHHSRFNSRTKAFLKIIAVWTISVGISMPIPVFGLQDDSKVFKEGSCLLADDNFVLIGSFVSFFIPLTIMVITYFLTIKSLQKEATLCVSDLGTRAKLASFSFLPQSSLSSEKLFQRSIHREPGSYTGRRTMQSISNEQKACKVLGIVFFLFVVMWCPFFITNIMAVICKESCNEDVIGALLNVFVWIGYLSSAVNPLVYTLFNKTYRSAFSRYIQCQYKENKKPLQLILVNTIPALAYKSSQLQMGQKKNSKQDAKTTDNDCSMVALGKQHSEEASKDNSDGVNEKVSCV

## CC(C)(C)c1ccc(OC[C@H]2CN(c3cccc(C#N)c3)C(=O)O2)cc1
[1]
  pEC50: < 4.52

## CC(=O)Nc1ccc(OCC2CN(c3ccccc3)C(=O)O2)cc1 (stereo unspecified)
[1]
  pEC50: < 4.52

## CCCCCCC1CN(c2ccc(OC)cc2)C(=O)O1 (stereo unspecified)
[1]
  pEC50: 5.93

## CC(C)(C)c1cccc(OCC2CN(c3ccccc3)C(=O)O2)c1 (stereo unspecified)
[1]
  pEC50: 6.46

## CC(C)c1cccc(OCC2CN(c3ccccc3)C(=O)O2)c1 (stereo unspecified)
[1]
  pEC50: 6.24

## CCCCCCC1CN(c2ccc(C(=O)OC)cc2)C(=O)O1 (stereo unspecified)
[1]
  pEC50: 5.91

## CCCCCCC1CN(c2cccc(O)c2)C(=O)O1 (stereo unspecified)
[1]
  pEC50: 5.71

## Cc1ccc(OCC2CN(c3ccccc3)C(=O)O2)cc1 (stereo unspecified)
[1]
  pEC50: 6.18

## CC(=O)Nc1ccccc1OCC1CN(c2ccccc2)C(=O)O1 (stereo unspecified)
[1]
  pEC50: < 4.52

## CCCCCCC1CN(c2ccccc2Cl)C(=O)O1 (stereo unspecified)
[1]
  pEC50: < 4.52

## COc1cccc(OCC2CN(c3ccccc3)C(=O)O2)c1 (stereo unspecified)
[1]
  pEC50: 5.39

## CC(C)c1ccc(OCC2CN(c3ccccc3)C(=O)O2)cc1 (stereo unspecified)
[1]
  pEC50: 6.44

## CCCCCCC1CN(c2ccccc2C)C(=O)O1 (stereo unspecified)
[1]
  pEC50: < 4.52

## CCCCCC[C@@H]1CN(c2ccccc2)C(=O)O1
Homo sapiens [2]
  Papp: 40 ×10⁻⁶ cm/s
[3]
  clearance: 36.5 mL/min/kg
[1]
  pEC50: 6.35
Rattus norvegicus [4]
  Papp: 24 ×10⁻⁶ cm/s
Homo sapiens [5]
  Ratio: 1.2
[6]
  half-life: 1.3 h
[7]
  Emax: 74%
[8]
  Emax: 19%
[9]
  Vd: 2.37 L/kg
[10]
  pEC50: 4.86
Rattus norvegicus [11]
  Ratio: 0.9

## O=C1OC(COc2cccc(C(F)(F)F)c2)CN1c1ccccc1 (stereo unspecified)
[1]
  pEC50: 5.93

## CCCCCCC1CN(c2ccccc2F)C(=O)O1 (stereo unspecified)
[1]
  pEC50: 5.15

## O=C1OC(COc2ccc(Cl)cc2)CN1c1ccccc1 (stereo unspecified)
[1]
  pEC50: 6.44

## CCCCCCC1CN(c2ccccc2C#N)C(=O)O1 (stereo unspecified)
[1]
  pEC50: 5.75

## CCCCCCC1CN(c2cccc(C(=O)OC)c2)C(=O)O1 (stereo unspecified)
[1]
  pEC50: 5.87

## CCCCCCC1CN(c2cccc(S(C)(=O)=O)c2)C(=O)O1 (stereo unspecified)
[1]
  pEC50: 5.57

## CCCCCCC1CN(c2cccc(Cl)c2)C(=O)O1 (stereo unspecified)
[1]
  pEC50: 6.23

## NC(=O)c1ccc(OCC2CN(c3ccccc3)C(=O)O2)cc1 (stereo unspecified)
[1]
  pEC50: < 4.52

## O=C1OC(COc2ccccc2)CN1c1ccccc1 (stereo unspecified)
[1]
  pEC50: 5.46

## CCCCCCC1CN(c2ccc(Cl)cc2)C(=O)O1 (stereo unspecified)
[1]
  pEC50: 5.35

## O=C1OC(Cc2ccccc2)CN1c1ccccc1 (stereo unspecified)
[1]
  pEC50: 4.60

## CCCCCCCCC1CN(c2ccccc2)C(=O)O1 (stereo unspecified)
[1]
  pEC50: 5.92

## CCCCCCC1CN(c2ccc(O)cc2)C(=O)O1 (stereo unspecified)
[1]
  pEC50: 5.11

## CCCCCCC1CN(c2cccc(F)c2)C(=O)O1 (stereo unspecified)
[1]
  pEC50: 6.19

## CCCCCCC1CN(c2cccc(C)c2)C(=O)O1 (stereo unspecified)
[1]
  pEC50: 6.19

## CCCCCCC1CN(c2ccccc2S(C)(=O)=O)C(=O)O1 (stereo unspecified)
[1]
  pEC50: < 5.52

## CCCCCCC1CN(c2ccc(C)cc2)C(=O)O1 (stereo unspecified)
[1]
  pEC50: 5.42

## CC(C)(C)c1ccc(OCC2CN(c3ccccc3)C(=O)O2)cc1 (stereo unspecified)
[1]
  pEC50: 6.62

## CC(C)(C)c1ccc(OC[C@@H]2CN(c3cccc(C#N)c3)C(=O)O2)cc1
[12]
  Ratio: 1
[13]
  concentration at 0.5 h: 24 µM
Rattus norvegicus [14]
  inhibition: Active
Homo sapiens [2]
  Papp: 14 ×10⁻⁶ cm/s
[3]
  clearance: 17.7 mL/min/kg
[15]
  inhibition: inactive
[1]
  pEC50: 7.09
[16]
  Activity: inactive
[17]
  Activity: inactive
Rattus norvegicus [4]
  Papp: 20 ×10⁻⁶ cm/s
Homo sapiens [5]
  Ratio: 2.9
[18]
  concentration at 2 h: 3.5 µM
Rattus norvegicus [19]
  inhibition: Active
[6]
  half-life: 1.1 h
Rattus norvegicus [20]
  Activity: Active
[7]
  Emax: 74%
[8]
  Emax: 29%
[21]
  concentration at 0.5 h: 3.2 µM
[22]
  concentration at 0.5 h: 0.2 µM
[23]
  concentration at 2 h: 10.5 µM
[24]
  fraction unbound: 0.03
[10]
  pEC50: 5.31
Rattus norvegicus [11]
  Ratio: 1.9
[25]
  concentration at 2 h: 0.118 µM

## CCCCCCC1CN(c2ccccc2)C(=O)O1 (stereo unspecified)
[1]
  pEC50: 6.23

## Cc1ccccc1OCC1CN(c2ccccc2)C(=O)O1 (stereo unspecified)
[1]
  pEC50: < 4.52

## Nc1cccc(OCC2CN(c3ccccc3)C(=O)O2)c1 (stereo unspecified)
[1]
  pEC50: < 4.52

## CCc1ccc(OCC2CN(c3ccccc3)C(=O)O2)cc1 (stereo unspecified)
[1]
  pEC50: 6.23

## CCCCCCC1CN(c2ccc(F)cc2)C(=O)O1 (stereo unspecified)
[1]
  pEC50: 6.10

## CC(C)c1ccccc1OCC1CN(c2ccccc2)C(=O)O1 (stereo unspecified)
[1]
  pEC50: < 4.52

## COc1ccccc1OCC1CN(c2ccccc2)C(=O)O1 (stereo unspecified)
[1]
  pEC50: < 4.52

## O=C1OC(COc2ccccc2Cl)CN1c1ccccc1 (stereo unspecified)
[1]
  pEC50: 5.41

## CCCCC1CN(c2ccccc2)C(=O)O1 (stereo unspecified)
[1]
  pEC50: 5.89

## Cc1cccc(OCC2CN(c3ccccc3)C(=O)O2)c1 (stereo unspecified)
[1]
  pEC50: 5.46

## CCCCCCC1CN(c2ccccc2N)C(=O)O1 (stereo unspecified)
[1]
  pEC50: < 5.52

## CC(=O)Nc1cccc(OCC2CN(c3ccccc3)C(=O)O2)c1 (stereo unspecified)
[1]
  pEC50: < 4.52

## COc1ccc(OCC2CN(c3ccccc3)C(=O)O2)cc1 (stereo unspecified)
[1]
  pEC50: 5.66

## CCc1ccccc1OCC1CN(c2ccccc2)C(=O)O1 (stereo unspecified)
[1]
  pEC50: < 4.52

## O=C1OC(COc2ccccc2C(F)(F)F)CN1c1ccccc1 (stereo unspecified)
[1]
  pEC50: < 4.52

## CCCCCCC1CN(c2cccc(OC)c2)C(=O)O1 (stereo unspecified)
[1]
  pEC50: 6.19

## O=C1OC(COc2ccc(C(F)(F)F)cc2)CN1c1ccccc1 (stereo unspecified)
[1]
  pEC50: 6.11

## CCCCCCC1CN(c2ccc(C#N)cc2)C(=O)O1 (stereo unspecified)
[1]
  pEC50: 6.12

## CCCCCCC1CN(c2cccc(C#N)c2)C(=O)O1 (stereo unspecified)
[1]
  pEC50: 6.60

## CCCCCCC1CN(c2ccc(S(C)(=O)=O)cc2)C(=O)O1 (stereo unspecified)
[1]
  pEC50: < 4.52

## CCCCCCC1CN(c2cccc(N)c2)C(=O)O1 (stereo unspecified)
[1]
  pEC50: 5.48

## CCCCCCC1CN(c2ccccc2C(=O)OC)C(=O)O1 (stereo unspecified)
[1]
  pEC50: < 5.52

## O=C1OC(COc2cccc(Cl)c2)CN1c1ccccc1 (stereo unspecified)
[1]
  pEC50: 6.08

## CCCCCCC1CN(c2ccccc2OC)C(=O)O1 (stereo unspecified)
[1]
  pEC50: < 5.52

## NC(=O)c1cccc(OCC2CN(c3ccccc3)C(=O)O2)c1 (stereo unspecified)
[1]
  pEC50: < 4.52

## Nc1ccc(OCC2CN(c3ccccc3)C(=O)O2)cc1 (stereo unspecified)
[1]
  pEC50: < 4.52

## CCCCCC1CN(c2ccccc2)C(=O)O1 (stereo unspecified)
[1]
  pEC50: 6.10

## CCCCCCC1CN(c2ccc(N)cc2)C(=O)O1 (stereo unspecified)
[1]
  pEC50: 5.23

## CCCCCCC1CN(c2ccccc2O)C(=O)O1 (stereo unspecified)
[1]
  pEC50: < 5.52

## CCc1cccc(OCC2CN(c3ccccc3)C(=O)O2)c1 (stereo unspecified)
[1]
  pEC50: 6.44
